Measured values taken from patent US20260055083A1, “APOL1 INHIBITORS AND METHODS OF USE” (Maze Therapeutics, Inc., priority 2022, published 2026).
pEC50: −log10 of the molar value.

Assays:
APOL1 G2 [1] = target: T1, APOL1 G2 (Homo sapiens, UniProt O14791, DEL388-389); assay: APOL1 G2 HEK293 rescue of cell death caused by overexpression of APOL1 (CellTiter-Glo); format: cell-based; conditions: HEK293/T-REx APOL1 G2 clone #2, doxycycline induction, 17 hours, CellTiter-Glo luminescence; reversal of cell death; geometric mean of at least 2 assay runs
T1 construct: expressed in transfected cells; host or cells: HEK293/T-REx APOL1 G2 clone #2, doxycycline-inducible
T1 sequence (O14791 with tags, fused parts or gaps DEL388-389): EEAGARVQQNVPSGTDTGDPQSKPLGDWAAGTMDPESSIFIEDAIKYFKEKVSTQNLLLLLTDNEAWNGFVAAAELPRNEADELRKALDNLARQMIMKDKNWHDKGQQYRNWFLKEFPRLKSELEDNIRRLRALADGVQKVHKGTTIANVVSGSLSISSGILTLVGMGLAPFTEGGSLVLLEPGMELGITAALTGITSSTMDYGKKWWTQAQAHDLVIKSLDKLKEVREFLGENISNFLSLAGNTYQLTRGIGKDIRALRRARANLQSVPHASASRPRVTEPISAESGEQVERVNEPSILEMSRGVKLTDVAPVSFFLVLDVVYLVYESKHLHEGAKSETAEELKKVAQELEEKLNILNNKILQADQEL
Method: A HEK293 clonal cell line overexpressing APOL1 G2 (HEK293/T-REx APOL1 G2/clone #2) was maintained in 1×DMEM-GlutaMax (Gibco, 10569-010) media with 10% tetracycline-free FBS (Takara Bio USA, 631101), 5 μg/mL Blasticidin (Gibco, A1113903), and 100 μg/mL Zeocin (Invitrogen, R25001) in T75 flasks. In preparation for the assay, this media was aspirated and 2 mL of prewarmed TrypLE Express (Gibco, 12605-010) was added to a flask to detach cells. The flask was then incubated (humidified, 37° C. with 5% CO2) for 3-5 minutes. Afterwards, 8 mL of prewarmed cell assay media (1×DMEM-GlutaMax media with 10% tetracycline-free FBS) was added to the trypsinized cells. The suspension was gently mixed, and cells were counted using a Countess Cell Counting Chamber (Invitrogen). The suspension was diluted using cell assay media to generate a working stock solution (166,667 cells/mL). Using a MultiDrop Combi (Thermo Electron Corp), 30 μL (final cell density=5,000 cells/well) of the working stock solution was dispensed into each well of white 384-well assay ready plates (Nunc™, 164610) containing 6 ng/mL doxycycline, to induce APOL1 expression, and compound. All compounds were plated in a duplicate 8-point dilution series that consisted of 3-fold stepwise dilutions (0.5% DMSO final). Assay plates were incubated (humidified, 37° C. with 5% CO2) for 17 hours. After the incubation, the plates were equilibrated at room temperature for 1 hour. Next, 15 μl of CellTiter-Glo® reagent (Promega, G7570) was added to each well using a MultiDrop Combi. Plates were placed on an orbital shaker (500 rpm) for 5 minutes to induce cell lysis and then incubated at room temperature for 10 minutes. Luminescence was measured on an Envision plate reader. Collaborative Drug Discovery software was utilized for graphing data. Plots were generated using a four parameter logistic curve fit.
Table B2 below provides the results from this experiment. Unless otherwise specified, EC50 values are reported as the geometric mean of at least 2 assay runs on separate days. Each run represents the average of a technical replicate, where each compound was assayed twice in the same plate. A superscript t symbol indicates a value from the average of a technical replicate from a single assay run, where each compound was assayed twice in the same plate. Compounds in Table B2 are referred to by the corresponding Compound Number in Table 1, which is also referred to in the synthetic examples. When one or more of the numbered compounds are identified by stereochemistry (for example, (R)- or (S)-), the specific stereoisomer for which data is provided in Table B2 may be identified by the elution order of such compound as described in the synthetic examples. To illustrate, Compound 2 is the first-eluting enantiomer of step 4 of Example 1 and Compound 3 is the second-eluting enantiomer of step 4 of Example 1. Further, by way of illustration, Compound 27 is the first-eluting enantiomeric mixture in step 4 of Example 7 and Compound 28 is the second-eluting enantiomeric mixture in step 4 of Example 7. Then, Compound 27 is separated into Compound 29 (the first-eluting enantiomer) and Compound 30 (the second-eluting enantiomer) in Example 8, and Compound 28 is separated into Compound 31 (the first-eluting enantiomer) and Compound 32 (the second-eluting enantiomer) in Example 8. Absolute stereochemistry of such compounds may be identified by methods known in the art.
Rescue EC50 values reported in Table B2 below represent the half-maximal effective concentration for reversal of cell death caused by overexpression of APOL1.

APOL1 G2 [2] = target: T1, APOL1 G2; assay: APOL1 G2 FLIPR calcium influx assay (HEK T-REx/GCaMP6f/APOL1 G2 K6.3 cells); format: cell-based; conditions: HEK293 clone expressing GCaMP6f, doxycycline-induced APOL1 G2; prevention of calcium influx; geometric mean of at least 2 assay runs
Method: A HEK293 clonal cell line was generated to stably express GCaMP6f, a genetically encoded calcium indicator, and inducibly express APOL1 G2 (HEK T-REx/GCaMP6f/APOL1 G2 K6.3). Cells were maintained in the following standard complete medium: DMEM with 4.5 g/L glucose and sodium pyruvate (BioWhittaker, Lonza, BE12-614F), supplemented with 10% FBS Performance Plus (Gibco, 16000044), 1% penicillin-streptomycin (BioWhittaker, DE17-602E), 2 mM ultraglutamine-1 (BioWhittaker cat. BE 17-605/U1), 50 μg/mL Zeocin (InvivoGen, ant-zn), 2.5 μg/mL Blasticidin (InvivoGen, ant-bl-5), and 25 μg/mL Hygromycin (InvivoGen, ant-hg). Standard propagation conditions consisted of plating 9×10^6, 4×10^6, 2×10^6 cells in a T225 flasks to be processed after 2, 3, or 4 days, respectively.
A source plate was generated containing 20 serially diluted compounds in DMSO (duplicate 8-point dose response). Next, 0.8 μL of compounds were transferred from the source plate to a destination plate prefilled with 79.2 μL of Ca^2+ free Tyrode's buffer (130 mM NaCl, 5 mM KCl, 1 mM MgCl2, 5 mM NaHCO3, 20 mM HEPES at pH 7.4). The destination plate was placed on a plate shaker (5 seconds at 2000 rpm) to mix. […] All transfer and mixing steps were conducted with an CyBi®-Well dispenser.
Cells were split by gently washing with DPBS (Euroclone, ECB4004L), followed by a 5-minute incubation (humidified, 37° C. with 5% CO2) with trypsin-EDTA solution (Euroclone, ECB3052D). Detached cells were diluted with standard complete medium without selective agents, counted, and plated in a 384 MTP microplate (GR4332CPL, Twin Helix) (10,000 cells/well in 25 μl/well) using a MATRIX WellMate dispenser. Plates were placed into a humidified incubator (37° C. with 5% CO2) overnight. The following day, 20 μL of doxycycline (Sigma, D9891) at 20 ng/mL in standard complete medium was added to cells with a CyBi®Drop dispenser to induce APOL1 G2 expression. After a 6-hour incubation (humidified, 37° C. with 5% CO2), cells were washed 3 times with Ca^2+ free Tyrode's Buffer (130 mM NaCl, 5 mM KCl, 1 mM MgCl2, 5 mM NaHCO3, 20 mM HEPES at pH 7.4) using a BIOTEK Microplate washer, such that 10 μL of buffer remained in each well after the final wash. Assay plates were then stored at room temperature for 10 minutes. Next, 10 μL of diluted compounds were transferred to the assay plate from the 2× compound plate using a CyBi®-Well dispenser. Compound incubation was then carried out at room temperature for 10 minutes. The assay plate was transferred to the […] and 20 μL of 10 mM Ca^2+ (final concentration=5 mM) Tyrode's buffer was injected.
Table B1 below summarizes the data from this experiment. Unless otherwise specified, AC50 and values are reported as the geometric mean of at least 2 assay runs on separate days. Each run represents the average of a technical replicate, where each compound was assayed twice in the same plate. A superscript t symbol indicates a value from the average of a technical replicate from a single assay run, where each compound was assayed twice in the same plate.
The AC50 values in Table B1 below reflect the compound's ability to prevent calcium influx by inhibiting APOL1. […] Compounds in Table B1 are referred to by the corresponding Compound Number in Table 1, which is also referred to in the synthetic examples. When one or more of the numbered compounds are identified by stereochemistry (for example, (R)- or (S)-), the specific stereoisomer for which data is provided in Table B1 may be identified by the elution order of such compound as described in the synthetic examples. To illustrate, Compound 2 is the first-eluting enantiomer of step 4 of Example 1 and Compound 3 is the second-eluting enantiomer of step 4 of Example 1. Further, by way of illustration, Compound 27 is the first-eluting enantiomeric mixture in step 4 of Example 7 and Compound 28 is the second-eluting enantiomeric mixture in step 4 of Example 7. […]

Molecule `C[C@@H]1C[C@H](COc2ccc(S(C)(=O)=O)cc2)CN1C1CCc2c(Cl)cccc2C1` (single isomer, unassigned) [Compound 138, (2R,4S)-1-[(2R or 2S)-5-chloro-1,2,3,4-tetrahydronaphthalen-2-yl]-4-[(4-methanesulfonylphenoxy)methyl]-2-methylpyrrolidine] has a pEC50 (APOL1 G2 [1]) of 6.83 and an AC50 (APOL1 G2 [2]) of 1080 nM.
With `C[C@@H]1C[C@H](COc2ccc(S(C)(=O)=O)cn2)CN1CCc1cc(Cl)cc(C#N)c1` [Compound 12, 3-chloro-5-{2-[(2R,4S)-4-{[(5-methanesulfonylpyridin-2-yl)oxy]methyl}-2-methylpyrrolidin-1-yl]ethyl}benzonitrile] the pEC50 (APOL1 G2 [1]) was 7.00 and the AC50 (APOL1 G2 [2]) was 279 nM.
`C[C@@H]1C[C@H](COc2ccc(S(C)(=O)=O)nc2)CN1CCc1cccc(C#N)c1` [Compound 64, 3-{2-[(2R,4S)-4-{[(6-methanesulfonylpyridin-3-yl)oxy]methyl}-2-methylpyrrolidin-1-yl]ethyl}benzonitrile] showed a pEC50 (APOL1 G2 [1]) of 7.29 and an AC50 (APOL1 G2 [2]) of 287 nM.
Molecule `CS(=O)(=O)c1ccc(OCC2C[C@@H](CO)N(CCc3cccc(Cl)c3)C2)cc1` (single isomer, unassigned) [Compound 124, [(2S,4R or 4S)-1-[2-(3-chlorophenyl)ethyl]-4-[(4-methanesulfonylphenoxy)methyl]pyrrolidin-2-yl]methanol] has a pEC50 (APOL1 G2 [1]) of 5.27 and an AC50 (APOL1 G2 [2]) of 4920 nM.
`C[C@@H]1C[C@H](COc2ccc(S(=O)(=O)CCCS(C)(=O)=O)cc2)CN1C1CCc2c(C#N)cccc2C1` (single isomer, unassigned) [Compound 42, (6R or 6S)-6-[(2R,4S)-4-{[4-(3-methanesulfonylpropanesulfonyl)phenoxy]methyl}-2-methylpyrrolidin-1-yl]-5,6,7,8-tetrahydronaphthalene-1-carbonitrile] was tested, and the pEC50 (APOL1 G2 [1]) was 6.64 and the AC50 (APOL1 G2 [2]) was 1030 nM.
`C[C@@H]1CN(CC(CO)c2cc(Cl)cc(C#N)c2)C[C@H]1COc1ccc(S(C)(=O)=O)cc1` (single isomer, unassigned) [Compound 127, 3-chloro-5-[(2R or 2S)-1-hydroxy-3-[(3S,4S)-3-[(4-methanesulfonylphenoxy)methyl]-4-methylpyrrolidin-1-yl]propan-2-yl]benzonitrile] was tested, and the pEC50 (APOL1 G2 [1]) was < 5.00 and the AC50 (APOL1 G2 [2]) was 2220 nM.
`CC(c1ccc(OC[C@@H]2CN(CCc3cccc(Cl)c3)CCN2)cc1)S(C)(=O)=O` (single isomer, unassigned) [Compound 141, (3S)-1-[2-(3-chlorophenyl)ethyl]-3-({4-[(1R) or (1S)-1-methanesulfonylethyl]phenoxy}methyl)piperazine] gave a pEC50 (APOL1 G2 [1]) of 6.63 and an AC50 (APOL1 G2 [2]) of 160 nM.
Molecule `CS(=O)(=O)c1ccc(OC[C@@H]2CN(CCc3cccc(Cl)c3)C[C@H]2CO)cc1` [Compound 21, [(3S,4S)-1-[2-(3-chlorophenyl)ethyl]-4-[(4-methanesulfonylphenoxy)methyl]pyrrolidin-3-yl]methanol] has a pEC50 (APOL1 G2 [1]) of 6.55 and an AC50 (APOL1 G2 [2]) of 138 nM.
Molecule `Cc1c(C#N)cc(Cl)cc1CCN1C[C@@H](CO)[C@H](COc2ccc(S(C)(=O)=O)cc2)C1` [Compound 23, 5-chloro-3-{2-[(3S,4S)-3-(hydroxymethyl)-4-[(4-methanesulfonylphenoxy)methyl]pyrrolidin-1-yl]ethyl}-2-methylbenzonitrile] has a pEC50 (APOL1 G2 [1]) of 6.51 and an AC50 (APOL1 G2 [2]) of 392 nM.
In the case of `C[C@@H]1C[C@H](COc2ccc(S(=O)(=O)CCCS(C)(=O)=O)cc2)CN1C1CCc2c(C#N)cccc2C1` (stereo partly drawn) [Compound 40, 6-[(2R,4S)-4-{[4-(3-methanesulfonylpropanesulfonyl)phenoxy]methyl}-2-methylpyrrolidin-1-yl]-5,6,7,8-tetrahydronaphthalene-1-carbonitrile], the pEC50 (APOL1 G2 [1]) was 7.13 and the AC50 (APOL1 G2 [2]) was 534 nM.
With `CC(C(O)c1cc(Cl)cc(C#N)c1)N1C[C@@H](COc2ccc(S(C)(=O)=O)cc2)C[C@H]1C` (single isomer, unassigned) [Compound 98, 3-chloro-5-[(1R,2S or 1S,2R or 1S,2S or 1R,2R)-1-hydroxy-2-[(2R,4S)-4-[(4-methanesulfonylphenoxy)methyl]-2-methylpyrrolidin-1-yl]propyl]benzonitrile] the pEC50 (APOL1 G2 [1]) was < 5.00 and the AC50 (APOL1 G2 [2]) was 2840 nM.
